One series concerns the target a3b4 nAChRs (Homo sapiens, UniProt P30926+P32297). As to the kind of experiment: Relative potency at a3b4 nAChRs, epibatidine-induced calcium response. Type of series: cell-based. As to the method:
The HEK293 (a3b4, a4b2 and a7) and SH-SY5Y cell lines (a3b4) expressing nAChRs are used. Validated assays optimized with respect to sensitivity, dynamic range, signal intensity and stability for chemical probe validation and SAR refinement are used.
Nicotinic functional assays are performed using the Molecular Devices FLIPR® Calcium 5 Assay Kit. HEK293 cells overexpressing α3β4, α4β2 or α7 (50,000 cells per well in 100 μl growth media) and are plated in clear bottom black walled 96-well microplates and incubated for 24-48 hours at 37° C., 5% CO2 until a 80-90% confluent monolayer is formed. On the day of the assay, 100 μl of Calcium 5 Dye is added to each well. Following addition of dye, cells are incubated at 25° C. for 60 minutes. Following dye loading, 50 μl of a 5× solution of reference or test compound of appropriate concentration range (0.01-30 μM), prepared in 20 mM HEPES pH 7.4 in HBSS, is added to each well. Plates are then transferred to the Molecular Devices Flexstation® which transfers 50 μL of a 5× solution (500 nM) of epibatine to each well to initiate the Ca+2 flux. Additional wells (in quadruplicate) are prepared with no added test or reference ligand for measurement of 100% flux. The RFU (relative fluorescence units) in the presence of the test or reference compounds is then expressed on the percent scale. The percent inhibition of epibatidine induced Ca^+2 flux is calculated as follows: % inhibition=100%−% RFU (relative fluorescence units). The IC50 values for reference and test compounds are obtained by fitting normalized RFU data using Graphpad Prism software.

Series [1] can be described thus: CNS penetration across the blood brain barrier. More on the design: species or system mice. The conditions noted are these: mouse, in vivo. Here is the method:
Mice are dosed with compounds. Brain to blood ratios are determined by HPLC and LC/MS/MS analysis following oral administration of the test compounds in mice.

Series [2] deals with T1, kappa opioid receptor (kOR) (Homo sapiens, UniProt P41145).
T1 construct: expressed in transfected cells; host or cells: CHO or HEK293 (membranes)
T1 sequence (P41145 whole entry): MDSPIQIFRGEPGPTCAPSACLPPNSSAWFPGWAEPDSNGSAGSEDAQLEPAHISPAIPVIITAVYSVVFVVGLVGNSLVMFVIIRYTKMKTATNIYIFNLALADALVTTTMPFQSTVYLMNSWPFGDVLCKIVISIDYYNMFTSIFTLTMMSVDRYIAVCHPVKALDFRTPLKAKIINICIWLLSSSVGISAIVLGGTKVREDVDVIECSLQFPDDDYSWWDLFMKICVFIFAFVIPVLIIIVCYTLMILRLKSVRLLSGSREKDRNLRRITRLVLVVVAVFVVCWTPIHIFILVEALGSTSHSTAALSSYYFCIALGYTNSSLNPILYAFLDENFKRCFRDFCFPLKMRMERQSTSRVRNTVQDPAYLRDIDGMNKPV
As to the kind of experiment: Kappa opioid receptor binding. The conditions noted are these: read-out: Affinity at kappa opioid receptor. Here is the method: Established radioligand binding methods are used to evaluate the ability of the compounds to block reuptake of scrotonin and dopamine in membrane preparations of synaptosomes. Equilibrium binding affinity values is determined for each compound at opioid receptors (μ and κ subtypes) and biogenic amine transporters (DAT and SERT). Where possible, binding experiments utilize membranes derived from CHO or HEK293 cells engineered to overexpress the human form of the receptor or transporter of interest. Radiolabeling of opioid receptors, and biogenic amine transporters utilizes conventional radioligands, buffers and incubation conditions according to published assays.
Test compounds, reference compounds and the radioligand (Kd value) are added to binding buffer. Assays are run with test or reference compound over a range of concentration (0.0001-10 uM) in triplicate using a 96-well sample plate containing radioligands specific for the target receptor or transporter. […] Bound radioactivity is counted in a Microbeta scintillation counter. Total bound radioactivity is estimated from triplicate wells containing no test or reference compound, together with nonspecific binding and filter blanks. The average bound radioactivity in the presence of the test compounds is expressed % inhibition=100%−% radioactivity bound. […]

Series [3] relates to panel of over 50 receptors, transporters, ion channels, second messengers, growth factor receptors and enzymes. As to the kind of experiment: Binding panel at physiologically relevant concentrations. The text has this:
The association between cigarette smoking and the presence and severity of suicidal behavior across major psychiatric disorders may be related to lower brain serotonin function in smokers with depression).

We go through three molecules from US9783535B2 (priority 2012, dated 2017).

Chain of a3b4 nAChRs (P32297 32-505): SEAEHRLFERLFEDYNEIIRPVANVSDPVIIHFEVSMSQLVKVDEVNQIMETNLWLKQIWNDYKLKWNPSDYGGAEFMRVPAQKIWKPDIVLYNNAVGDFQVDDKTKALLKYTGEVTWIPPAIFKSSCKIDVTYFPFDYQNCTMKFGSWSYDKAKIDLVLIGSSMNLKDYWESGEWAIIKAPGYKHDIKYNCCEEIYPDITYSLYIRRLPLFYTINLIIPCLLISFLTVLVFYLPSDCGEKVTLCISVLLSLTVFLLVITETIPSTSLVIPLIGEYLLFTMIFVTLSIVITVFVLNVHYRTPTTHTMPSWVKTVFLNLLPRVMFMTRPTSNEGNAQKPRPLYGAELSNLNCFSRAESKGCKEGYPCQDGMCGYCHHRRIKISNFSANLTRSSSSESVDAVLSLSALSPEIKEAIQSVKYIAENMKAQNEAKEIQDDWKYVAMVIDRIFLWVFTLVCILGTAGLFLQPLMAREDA
Chain of a3b4 nAChRs (P30926 22-498): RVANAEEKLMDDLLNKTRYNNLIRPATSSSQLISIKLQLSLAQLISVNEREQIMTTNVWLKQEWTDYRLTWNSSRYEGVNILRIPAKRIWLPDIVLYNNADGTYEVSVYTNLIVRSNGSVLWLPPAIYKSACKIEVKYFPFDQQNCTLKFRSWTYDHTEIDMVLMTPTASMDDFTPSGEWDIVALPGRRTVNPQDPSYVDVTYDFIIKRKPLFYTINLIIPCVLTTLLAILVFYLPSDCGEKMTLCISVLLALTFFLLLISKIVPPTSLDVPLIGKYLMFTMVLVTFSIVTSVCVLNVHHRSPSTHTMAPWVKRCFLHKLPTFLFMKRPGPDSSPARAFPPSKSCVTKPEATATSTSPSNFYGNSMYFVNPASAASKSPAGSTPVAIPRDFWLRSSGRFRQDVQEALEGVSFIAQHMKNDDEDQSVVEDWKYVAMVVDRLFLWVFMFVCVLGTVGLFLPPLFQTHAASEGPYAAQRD

As for Ibogaine, on a3b4 nAChRs (a3b4 nAChRs), the “Potency as inhibitor of the epibatidine-induced calcium response compared with 18-MC and noribogaine” value is “more potent inhibitors than 18-MC (18-methoxycoronaridine) and noribogaine”.
Take `COCC[C@H]1CC2CN3CCc4c([nH]c5ccccc45)[C@](C(=O)OC)(C2)[C@H]13` [Compound 18-MC, 18-methoxycoronaridine]: the “IC50 of the reference 18-MC behind the ratio” value on a3b4 nAChRs (a3b4 nAChRs, bracketed value in Table 4) was found to be 4000 nM. The “Ratio from 18-MC” value on a3b4 nAChRs (relative potency at a3b4 nAChRs, 18-MC = 1) was determined as 1. In addition, the “Crossing of the BBB and brain concentration” value in series [1] was “cross the BBB and reach micromolar concentrations in brain”.
Turning to `CC[C@H]1CC2C[C@H]3c4[nH]c5ccc(O)cc5c4CCN(C2)C13` [Noribogaine, 12-hydroxyibogamine], the Ki in series [2] was found to be 1000 nM. In addition, the “Targets bound in the panel” value in series [3] is “only bound to SERT, DAT, mu and kappa opioid receptors”. For the same molecule, the “Crossing of the BBB and brain concentration” value in series [1] is “cross the BBB and reach micromolar concentrations in brain”.
